Experimental data published in patent US11192932B2, “Heparin-binding domain of IGFBP-2 in the treatment of metabolic disorders” (Amolyt Pharma, priority 2018, dated 2021).
“Also recorded” adds a separate entry of the source.

Legend:
3T3-LI adipocytes = experiment: [3H]-2-deoxyglucose uptake by fully differentiated 3T3-LI adipocytes; type: cell-based, mouse; conditions: 3 μg/ml for 24 hours
Protocol: The cells were exposed to the test compounds at a concentration of 3 μg/ml for 24 hours before testing for [^3H]-2-deoxyglucose uptake.
3T3-LI cells are a mouse fibroblast cell line which when cultured under specific conditions, differentiate into adipocytes.
Differentiation of 3T3-LI cells into adipocytes was achieved using the following protocol. 3T3-L1 cells were seeded in 24-well plates and cultured in 3T3-L1 maintenance medium (DMEM containing 10% fetal bovine serum, 4 mM L-glutamine 1 mM, sodium pyruvate) until the cells were 100% confluent. The cells were then fed with 3T3-L1 maintenance medium and cultured for a further 48 h. To initiate differentiation into adipocytes, the medium was changed to Differentiation medium 1 (DMEM containing 10% fetal bovine serum, 4 mM L-glutamine, 1 mM sodium pyruvate, 0.5 mM IBMX, […]), and cultured for a further 2 days. The medium was then changed to Differentiation medium 2 (DMEM containing 10% fetal bovine serum, 4 mM L-glutamine, 1 mM sodium pyruvate, 1 mg/ml insulin), and cultured for a further 2 days. The medium was then changed to Adipocyte Maintenance medium (DMEM containing 10% fetal bovine serum, 4 mM L-glutamine, 1 mM sodium pyruvate), and cultured for a further 7 days. During this time, the medium was changed every other day. The now fully differentiated adipocytes were utilized for glucose uptake experiments (day 11 from initiation of differentiation). Stock solutions of the HBD1 peptides to be tested were prepared by dilution with 0.9% NaCl solution under sterile conditions in a laminar flow cabinet to a concentration of 1 mg/ml, based on net peptide content. The solutions were homogenized by gentle inversion. Test items were prepared from the stock solutions, and remaining stock solution was aliquoted and stored at −20° C. and used without repeated freeze-thaw cycles.
Glucose uptake experiments were carried our using the following protocol. Prior to beginning the experiment, 100 ml of Krebs Ringer bicarbonate buffer (KRBB)(25 mM Hepes pH 7.4, 118 mM NaCl, 5 mM NaHCO3, 4.7 mM KCl, 1.2 mM KH2PO4, 1.2 mM MgSO4, 2.5 mM CaCl2, 0.2% BSA—Filtered using a 0.2 μm filter) and 100 ml of Incubation medium (DMEM containing 4 mM L-glutamine, 1 mM sodium pyruvate, 1% penicillin streptomycin, 0.2% BSA—Filtered using a 0.2 μm filter) were pre-warmed to 37° C., and 500 ml of KRBB was chilled on ice. Stock solutions of test compounds were diluted to 3 μg/ml final concentrations in pre-warmed Incubation medium and in pre-warmed KRBB. Insulin (positive control), previously diluted 1:1000 in sterile 0.9% NaCl, was further diluted in 10 ml of both medium and buffer to a final concentration of 1 nM. All traces of the medium were carefully removed from the cells using a fine tip. […]

[1] = test system: C2C12 mouse skeletal muscle myotubes; experiment: 3H-2-deoxyglucose uptake by fully differentiated C2C12 myotubes; type: cell-based; conditions: C2C12 myotubes, SEQ ID NO: 73 alone or together with insulin (FIG. 8)
Protocol: In particular: HBD1 SEQ ID NO: 73 (C18:0-HLGLEEPKK) at 0.8 μM, 1.5 μM, and 2.3 μM; or 1.5 μM SEQ ID NO: 73 (C18:0-HLGLEEPKK) for 2, 4, and 16 hours prior to testing glucose uptake.
The studies were performed using cultured, fully differentiated C2C12 mouse skeletal muscle myotubes. The cells were prepared by growing C2C12 cells to confluent density in DMEM with 25 mM glucose and 10% fetal bovine serum in 24 well plates. At this time, the medium was changed to differentiation medium (DMEM with 25 mM glucose and 2% horse serum) for 6 days with medium changed every third day. The various treatments were diluted in serum-free medium and, after washing the cells with serum-free medium, were added to the cells and incubated for 2 hours or alternative times, depending on the treatment. At the end of incubation period, the media was removed and 1.0 ml of glucose-free Krebs ringer bicarbonate buffer (pH 7.4), containing the same treatments, was added and incubation continued for 10 minutes. At the end of the 10 min incubation period, ^3H-2-deoxyglucose ([…]) (specific activity=8 Ci/mmole) was added directly to all wells, and the incubation continued for an additional […]. The wells were then rinsed three times with ice cold phosphate buffered saline, the cells were extracted with 0.5 N NaOH, and the ^3H-2-deoxyglucose content of the cell lysate quantitated by scintillation counting.

AMPK = AMPK phosphorylation (immunoblot anti-pAMPK T172) in C2C12 myotubes; type: cell-based, mouse; conditions: C2C12 myotubes treated with SEQ ID NO: 73 (FIG. 7)
Protocol: In particular: HBD1 SEQ ID NO: 73 (C18:0-HLGLEEPKK). The AMPK pathway is both insulin and IGF1 independent, but acts ultimately to induce GLUT4 translocation to the cell membrane to facilitate the uptake and metabolism of glucose.
For signaling studies the cells were prepared the same way except 6-well plates were used. After 6 days incubation in differentiating medium, the cells were washed with serum-free medium. The various treatments were then added in serum free medium containing 0.1% BSA. HBD1 peptides were added and incubated for 8 hours. When utilizing IGF-I, incubation was for 15 minutes after IGF-1 addition. Following incubation the cells were lysed in RIPA buffer and sonicated. The cell lysate was centrifuged and the supernatant analyzed for either Akt or AMPK by SDS PAGE using a 10% gel followed by immunoblotting with the appropriate antibody.
To examine further the intracellular transduction pathways utilized by the HBD1 peptides, following treatment with HBD1 peptide SEQ ID NO: 73 (C18:0-HLGLEEPKK), cell lysate proteins, were separated by SDS PAGE and immunoblotted with anti-pAMPK T172.

mice = conditions: publication Xi, 2013; cited from earlier work

Molecule	glucose uptake by 3T3-LI adipocytes (3T3-LI adipocytes)	effect of blocker on SEQ ID NO: 73-stimulated glucose uptake [1]	effect of blocker on SEQ ID NO: 73-induced AMPK phosphorylation (AMPK)	body weight and fat accumulation (mice)	glucose tolerance (mice)
HHLGLEEPKK [SEQ ID NO: 16]	stimulated increased glucose uptake	–	–	–	–
c1cc(-c2cnn3cc(-c4ccc(OCCN5CCCCC5)cc4)cnc23)ccn1 [Compound C, reference compound]	–	completely abolished; also recorded: prevented	completely abolished; also recorded: prevented	–	–
KHHLGLEEPKKLR [SEQ ID NO: 1]	stimulated increased glucose uptake	–	–	decrease body weight and fat accumulation	no effect
HLGLEEPKK [SEQ ID NO: 10]	stimulated increased glucose uptake	–	–	–	–
